Source: patent publication US20190127366A1 (LifeSci Pharmaceuticals, Inc., priority 2015, published 2019)

These compounds were tested against T1, human complement factor D (Homo sapiens, UniProt P00746) (assay: In vitro enzyme inhibition (Z-Lys-SBzl/DTNB absorbance assay)). Conditions: not given.
T1 construct: purchased R&D Systems 1824-SE
T1 sequence (P00746 26-253): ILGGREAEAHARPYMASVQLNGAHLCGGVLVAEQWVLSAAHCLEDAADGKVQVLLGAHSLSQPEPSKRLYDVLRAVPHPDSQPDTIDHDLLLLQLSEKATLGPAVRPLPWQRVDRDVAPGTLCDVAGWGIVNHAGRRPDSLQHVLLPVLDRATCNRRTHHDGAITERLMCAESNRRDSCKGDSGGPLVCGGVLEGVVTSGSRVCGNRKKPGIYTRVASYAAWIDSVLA
Type: biochemical
Protocol: The ability of the compounds disclosed herein to inhibit human complement factor D inhibitory activity was quantified according to the 12-step protocol provided below. • 1. Prepare assay buffer: 50 mM Tris/HCl, pH 7.5, 1 M NaCl. • 2. Dilute 10 mM Complement Factor D inhibitor Nafamostat Mesilate (Selleckchem, Catalog #S1386) solution from 10000 μM to 9.77 μM in 100% DMSO, 8 concentrations. Then dilute the serial concentrations of Nafamostat Mesilate 20-fold in assay buffer. • 3. Add 10 μl diluted Nafamostat Mesilate duplicated into each of the inhibitor control well of a 96-well plate (Corning, Catalog #3599). Final concentrations were 50 μM, 25 μM, 12.5 μM, 6.25 μM, 3.125 μM, 0.781 μM, 0.195 μM and 0.049 μM. 0.5% DMSO was in each well finally. • 4. Dilute 20 mM test compounds from 10000 μM to […] in 100% DMSO, 6-fold dilution, 8 concentrations. Then dilute the serial concentrations of test compounds 20-fold in assay buffer. • 5. Add 10 μl diluted test compounds duplicated into the 96-well plate. Final concentrations were 50 μM, 8.33 μM, 1.39 μM, 0.23 μM, 0.0386 μM, 0.0064 μM, 0.0011 μM and 0.0002 μM. 0.5% DMSO was in each well finally. • 6. Dilute 20 mM substrate Z-Lys-SBzl (Bachem, Cat #M-1300) to 200 μM in assay buffer with 200 μM DTNB(Sigma, Catalog #D8130). • 7. Dilute 738 ng/μL Complement Factor D (R&D Systems, Catalog #1824-SE) to 6.25 ng/μL in assay buffer. Add 40 μl diluted Complement Factor D in the 96-well plate. • 8. Positive control well contains Complement Factor D without test compound. Negative control well contains neither Complement Factor D nor test compound. Using assay buffer, bring the total volume of all controls to 50 μl. • 9. Pre-incubate the plate for 5 min at room temperature. • 10. Add 50 μl of diluted substrate/DTNB mixture into each well. Mix the reagents completely by shaking the plate gently for 30 sec. • 11. For kinetic reading: Immediately start measuring absorbance (A405 nm) continuously and record data every 30sec for 60 min. • 12. Data analysis • Inhibition activity of compound was evaluated by IC50. IC50 was calculated according the dose-response curve of compound fitted using GraphPadPrism with “log(inhibitor)-response (variable slope)” equation. • % inhibition was calculated by using following equation:
[formula] • Mean(NC): The average value of the negative control wells' A405 nm values. • Mean(PC): The average value of the positive control wells' A405 nm values.
The ability of the compounds in Table 2 to inhibit human complement factor D inhibitory activity was determined.
`CC(=O)N1CCN(C(=O)Cn2nc(C(N)=O)c3ccccc32)[C@H](C(=O)Nc2cccc(C(F)(F)F)n2)C1` [Example 30, (S)-1-(2-(4-acetyl-2-((6-(trifluoromethyl)pyridin-2-yl)carbamoyl)piperazin-1-yl)-2-oxoethyl)-1H-indazole-3-carboxamide] gave an IC50 of 1000 to 10000 nM.

Same assay, conditions: Complement Factor D (R&D Systems), substrate Z-Lys-SBzl, A405 nm; read-out: CFD IC50
`NC(=O)c1nn(CC(=O)N2CC3CC2(C(=O)Nc2cccc(Cl)n2)C3)c2ccccc12` [Example 151, 2-(2-(3-carbamoyl-1H-indazol-1-yl)acetyl)-N-(6-chloropyridin-2-yl)-2-azabicyclo[2.1.1]hexane-1-carboxamide] showed an IC50 of 1000 to 10000 nM. In the case of `NC(=O)c1nn(CC(=O)N2[C@@H]3CC[C@@H](C3)[C@H]2C(=O)Nc2cccc(F)n2)c2ccccc12` [Example 53, 1-(2-((1R,3S,4S)-3-((6-fluoropyridin-2-yl)carbamoyl)-2-azabicyclo[2.2.1]heptan-2-yl)-2-oxoethyl)-1H-indazole-3-carboxamide], the IC50 is reported as 1000 to 10000 nM. `COC(=O)c1cc(Cl)c(F)c(CNC(=O)[C@@H]2[C@H]3CC[C@H](C3)N2C(=O)Cn2nc(C(N)=O)c3ccccc32)c1` [Example 110, methyl 3-(((1R,3S,4S)-2-(2-(3-carbamoyl-1H-indazol-1-yl)acetyl)-2-azabicyclo[2.2.1]heptane-3-carboxamido)methyl)-5-chloro-4-fluorobenzoate] was tested, and the IC50 was 1000 to 10000 nM. `CC(=O)c1nn(CC(=O)N2[C@H](C(=O)Nc3cccc(Cl)n3)C[C@@H]3CCC[C@@H]32)c2ccccc12` [Example 180, (2S,3aS,6aS)-1-(2-(3-acetyl-1H-indazol-1-yl)acetyl)-N-(6-chloropyridin-2-yl)octahydrocyclopenta[b]pyrrole-2-carboxamide] was tested, and the IC50 was 100 to 1000 nM. `NC(=O)c1nn(CC(=O)N2CCCCC[C@H]2C(=O)NCc2cccc(Cl)c2F)c2ccccc12` [Example 31, (S)-1-(2-(2-((3-chloro-2-fluorobenzyl)carbamoyl)azepan-1-yl)-2-oxoethyl)-1H-indazole-3-carboxamide] was tested, and the IC50 was 100 to 1000 nM. `NC(=O)c1nn(CC(=O)N2[C@@H]3CC[C@@H](C3)[C@H]2C(=O)NCc2cc(CO)cc(Cl)c2F)c2ccccc12` [Example 114, 1-(2-((1R,3S,4S)-3-((3-chloro-2-fluoro-5-(hydroxymethyl)benzyl)carbamoyl)-2-azabicyclo[2.2.1]heptan-2-yl)-2-oxoethyl)-1H-indazole-3-carboxamide] was tested, and the IC50 was 1000 to 10000 nM. For `NC(=O)c1nn(CC(=O)N2[C@@H]3CC[C@@H](C3)[C@H]2C(=O)NCc2cccc(Cl)n2)c2ccccc12` [Example 52, 1-(2-((1R,3S,4S)-3-(((6-chloropyridin-2-yl)methyl)carbamoyl)-2-azabicyclo[2.2.1]heptan-2-yl)-2-oxoethyl)-1H-indazole-3-carboxamide], the IC50 was > 10000 nM. Work on `NC(=O)c1nn(CC(=O)N2[C@H](C(=O)Nc3cccc(Cl)n3)C[C@@H]3CCC[C@@H]32)c2cnccc12` [Example 177, 1-(2-((2S,3aS,6aS)-2-((6-chloropyridin-2-yl)carbamoyl)hexahydrocyclopenta[b]pyrrol-1(2H)-yl)-2-oxoethyl)-1H-pyrazolo[3,4-c]pyridine-3-carboxamide] yielded an IC50 of 100 to 1000 nM. `Cc1ccc2c(c1)c(C(N)=O)nn2CC(=O)N1[C@@H]2CC[C@@H](C2)[C@H]1C(=O)Nc1cccc(Cl)n1` [Example 61, 1-(2-((1R,3S,4S)-3-((6-chloropyridin-2-yl)carbamoyl)-2-azabicyclo[2.2.1]heptan-2-yl)-2-oxoethyl)-5-methyl-1H-indazole-3-carboxamide] showed an IC50 of 100 to 1000 nM. `NC(=O)c1nn(CC(=O)N2[C@@H]3CC[C@@H](C3)[C@H]2C(=O)NCc2c(CO)ccc(Cl)c2F)c2ccccc12` [Example 120, 1-(2-((1R,3S,4S)-3-((3-chloro-2-fluoro-6-(hydroxymethyl)benzyl)carbamoyl)-2-azabicyclo[2.2.1]heptan-2-yl)-2-oxoethyl)-1H-indazole-3-carboxamide] was tested, and the IC50 was 1000 to 10000 nM. For `NC(=O)c1nn(CC(=O)N2[C@H](CO)C[C@H]2C(=O)NCc2cccc(Cl)c2F)c2ccccc12` [Example 197, 1-(2-(trans-2-((3-chloro-2-fluorobenzyl)carbamoyl)-4-(hydroxymethyl)azetidin-1-yl)-2-oxoethyl)-1H-indazole-3-carboxamide], the IC50 was 1000 to 10000 nM. In the case of `N#CC(NC(=O)[C@@H]1[C@H]2CC[C@H](C2)N1C(=O)Cn1nc(C(N)=O)c2ccccc21)c1cccc(Cl)c1F` (stereo partly drawn) [Example 141, 1-(2-((1R,3S,4S)-3-(((3-chloro-2-fluorophenyl)(cyano)methyl)carbamoyl)-2-azabicyclo[2.2.1]heptan-2-yl)-2-oxoethyl)-1H-indazole-3-carboxamide], the IC50 is reported as 100 to 1000 nM. With `CC(O)c1nn(CC(=O)N2[C@@H]3CC[C@@H](C3)[C@H]2C(=O)Nc2cccc(Cl)n2)c2ccccc12` (stereo partly drawn) [Example 85, (1R,3S,4S)-N-(6-chloropyridin-2-yl)-2-(2-(3-(1-hydroxyethyl)-1H-indazol-1-yl)acetyl)-2-azabicyclo[2.2.1]heptane-3-carboxamide] the IC50 was > 10000 nM. `NC(=O)c1nn(CC(=O)N2[C@@H]3CC[C@@H](C3)[C@H]2C(=O)NCc2ccc(Cl)c(Cl)c2)c2ccccc12` [Example 72, 1-(2-((1R,3S,4S)-3-((3,4-dichlorobenzyl)carbamoyl)-2-azabicyclo[2.2.1]heptan-2-yl)-2-oxoethyl)-1H-indazole-3-carboxamide] gave an IC50 of 1000 to 10000 nM. Work on `CC(=O)c1nn(CC(=O)N2[C@@H]3CC[C@@H](C3)[C@H]2C(=O)Nc2cccc(Cl)n2)c2ccc(F)cc12` [Example 91, (1R,3S,4S)-2-(2-(3-acetyl-5-fluoro-1H-indazol-1-yl)acetyl)-N-(6-chloropyridin-2-yl)-2-azabicyclo[2.2.1]heptane-3-carboxamide] yielded an IC50 of 100 to 1000 nM. With `NC(=O)c1nn(CC(=O)N2[C@@H]3CC[C@@H](C3)[C@H]2C(=O)NCc2cc(Cl)ccc2Cl)c2ccccc12` [Example 69, 1-(2-((1R,3S,4S)-3-((2,5-dichlorobenzyl)carbamoyl)-2-azabicyclo[2.2.1]heptan-2-yl)-2-oxoethyl)-1H-indazole-3-carboxamide] the IC50 was 1000 to 10000 nM. `NC(=O)c1nn(CC(=O)N2[C@H](C(=O)Nc3cccc(Cl)c3F)C[C@@H]3CCC[C@@H]32)c2ccccc12` [Example 158, 1-(2-((2S,3aS,6aS)-2-((3-chloro-2-fluorophenyl)carbamoyl)hexahydrocyclopenta[b]pyrrol-1(2H)-yl)-2-oxoethyl)-1H-indazole-3-carboxamide] showed an IC50 of 100 to 1000 nM. In the case of `NC(=O)n1cc(CC(=O)N2CC[C@H]2C(=O)NCc2cccc(Cl)c2F)c2ccccc21` [Example 186, (S)-3-(2-(2-((3-chloro-2-fluorobenzyl)carbamoyl)azetidin-1-yl)-2-oxoethyl)-1H-indole-1-carboxamide], the IC50 is reported as 100 to 1000 nM. `NC(=O)c1nn(CC(=O)N2CC[C@H]2C(=O)NCc2cccc(Cl)c2F)cc1Br` [Example 187, (S)-4-bromo-1-(2-(2-((3-chloro-2-fluorobenzyl)carbamoyl)azetidin-1-yl)-2-oxoethyl)-1H-pyrazole-3-carboxamide] was tested, and the IC50 was 1000 to 10000 nM. `NC(=O)c1nn(CC(=O)N2[C@@H]3CC[C@@H](C3)[C@H]2C(=O)Nc2cccc(Cl)c2F)c2cnccc12` [Example 36, 1-(2-((1R,3S,4S)-3-((3-chloro-2-fluorophenyl)carbamoyl)-2-azabicyclo[2.2.1]heptan-2-yl)-2-oxoethyl)-1H-pyrazolo[3,4-c]pyridine-3-carboxamide] showed an IC50 of 1000 to 10000 nM. For `Cc1ccc(NC(=O)[C@@H]2[C@H]3CC[C@H](C3)N2C(=O)Cn2nc(C(N)=O)c3ccccc32)nc1Cl` [Example 68, 1-(2-((1R,3S,4S)-3-((6-chloro-5-methylpyridin-2-yl)carbamoyl)-2-azabicyclo[2.2.1]heptan-2-yl)-2-oxoethyl)-1H-indazole-3-carboxamide 2,2,2-trifluoroacetate], the IC50 was 100 to 1000 nM. `NC(=O)c1nn(CC(=O)N2[C@@H]3CC[C@@H](C3)[C@H]2C(=O)NC(CO)c2cccc(Cl)c2F)c2ccccc12` (stereo partly drawn) [Example 138, 1-(2-((1R,3S,4S)-3-((1-(3-chloro-2-fluorophenyl)-2-hydroxyethyl)carbamoyl)-2-azabicyclo[2.2.1]heptan-2-yl)-2-oxoethyl)-1H-indazole-3-carboxamide] was tested, and the IC50 was 1000 to 10000 nM.
